Values quoted from earlier work as cited in publication PMC7887855 (ACS Pharmacology & Translational Science, 2020).

Test system: Mtb
Settings: multiple daily IP injections, mice

C=Cc1c2[n-]c(c1C)/C=c1\[n-]/c(c(C)c1C=C)=C\c1[n-]c(c(CCC(=O)O)c1C)C=c1[n-]/c(c(C)c1CCC(=O)O)=C\2.[Sn+4] [SnPPIX, tin protoporphyrin IX]
effect on mycobacterial load as monotherapy: significantly decrease mycobacterial load
effect on treatment time in combination with conventional TB antibiotics: reduced treatment time by over one month
